Assay results reported in patent US9598387B2 (Southern Research Institute, priority 2012, dated 2017).

Assays:
[1] = biological target: human D2 dopamine receptors (Homo sapiens (Human), UniProt P14416); assay: Whole Cell Adenylyl Cyclase Assay, D2; assay type: cell-based; details: inhibition of forskolin (100 μM) stimulated cAMP, normalized to quinpirole; compound conc ≥10× Ki (per compound); mean ± S.E.M.
[2] = biological target: human D3 dopamine receptor (Homo sapiens (Human), UniProt P35462); assay: Whole Cell Adenylyl Cyclase Assay, D3; assay type: cell-based; details: inhibition of forskolin (100 μM) stimulated cAMP, normalized to quinpirole; compound conc ≥10× Ki (per compound); mean ± S.E.M.
D3R = D3R (Homo sapiens (Human), UniProt P35462); assay: [35S]GTPγS Binding Assay, CHO D3 membranes; assay type: biochemical; details: antagonist vs dopamine; Ke = functional Ki; read-out: CHO-hD3 Ke
Protocol: Chinese hamster ovary (CHO) cells expressing human D2L and D3 receptors served as the source for membrane fractions which were washed and resuspended with assay buffer containing Mg^2+, Na^+, EGTA, and bovine serum albumin. […] After preincubation with test compounds, cell membranes and GDP for 15 minutes at 30° C. in a shaking water bath, [^35S]GTPγS was added and incubation proceeded for an additional 45 minutes. Cell membranes were harvested on Brandel GF/B filtermats with a 24-pin Brandel harvester (Biomedical Research & Development Laboratories, Inc., Gaithersburg, Md.). […] Antagonist activity was assessed by testing a fixed concentration of the test compound and varying concentration of the agonist, dopamine (0.001-100 μM for CHO D2 and 0.1 nM-10 uM for CHO D3).

Long Evans rats = assay: Cocaine-induced locomotor activity; assay type: in vivo, rat; details: 3.75, 7.5 or 15 mg/kg 10 minutes before 10 mg/kg cocaine; p<0.05
Protocol: These studies were performed using Long Evans rats using standard protocols. Locomotor activity chambers measuring 43×43×30 cm (l×w×h) were used for the locomotor activity experiments. Each chamber was equipped with eight photo-emitters positioned along the length of the chamber 6 cm above the floor, each paired directly opposite a photocell. Locomotor activity counts were registered when adjacent beams were broken consecutively. Before receiving any drug, the animals (n=96) were placed in locomotor activity chambers for habituation, for 2 hours per day for 3 consecutive days. Based on the locomotor activity score obtained during the third habituation session, animals were assigned into one of […] treatment groups. […] For the 113 alone experiments, each of the four groups received one of 4 doses of 113 (0, 3.75, 7.5 or 15 mg/kg) 10 minutes prior to placement in the activity chambers. For the 113 cocaine interaction experiments, each of 4 groups were injected with one of the 4 doses of the compound (0, 3.75, 7.5 or 15 mg/kg) 10 minutes before receiving 10 mg/kg of cocaine as the second injection. […] The locomotor counts in the 113 alone and 113/cocaine experiments were analyzed using two separate mixed-design ANOVAs with 113 dose (between-groups) and 5-min bins (repeated measures) as factors. […]

Rats = assay: Cue-induced reinstatement of cocaine-seeking; assay type: in vivo, rat; details: 3 doses ip 20 minutes before reinstatement session
Protocol: Rats were trained to self-administer cocaine (1.0 mg/kg/injection) under a FR1 schedule of reinforcement in daily 3-h sessions and, after stable responding was established (as described above) the schedule was changed to FR3. After stable responding under the FR3 schedule was established, extinction training began. Stable responding was defined as follows: 12 consecutive sessions in which total rewards per session was greater than 20 and in which total rewards per session for the last three sessions was within ±10% of the mean of the three sessions. […] After extinction criteria were met each rat was tested in one 1-h reinstatement session; each rat received an ip injection of vehicle or one of 3 doses of the test compound and 20 minutes later was placed in the operant chamber. At the start of the reinstatement session the cocaine-associated cues (light on for 20 s and pump on for 4.5 s) were presented twice, once at 25 sec and again at 2 min into the session. Presses on the active lever illuminated the light and activated the pump.

Chain of human D3 dopamine receptor (P35462 whole entry): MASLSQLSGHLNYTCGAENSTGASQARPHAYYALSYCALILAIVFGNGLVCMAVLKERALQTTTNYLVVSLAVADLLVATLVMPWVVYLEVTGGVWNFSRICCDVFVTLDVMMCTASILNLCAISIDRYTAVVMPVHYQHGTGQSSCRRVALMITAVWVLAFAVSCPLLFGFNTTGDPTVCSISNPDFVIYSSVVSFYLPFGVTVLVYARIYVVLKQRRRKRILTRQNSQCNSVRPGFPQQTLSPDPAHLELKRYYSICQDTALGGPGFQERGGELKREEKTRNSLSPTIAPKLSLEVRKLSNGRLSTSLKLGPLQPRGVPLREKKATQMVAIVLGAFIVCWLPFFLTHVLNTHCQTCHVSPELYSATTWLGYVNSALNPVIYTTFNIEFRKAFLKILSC
Chain of D3R (P35462 whole entry): as above
Chain of human D2 dopamine receptors (P14416 whole entry): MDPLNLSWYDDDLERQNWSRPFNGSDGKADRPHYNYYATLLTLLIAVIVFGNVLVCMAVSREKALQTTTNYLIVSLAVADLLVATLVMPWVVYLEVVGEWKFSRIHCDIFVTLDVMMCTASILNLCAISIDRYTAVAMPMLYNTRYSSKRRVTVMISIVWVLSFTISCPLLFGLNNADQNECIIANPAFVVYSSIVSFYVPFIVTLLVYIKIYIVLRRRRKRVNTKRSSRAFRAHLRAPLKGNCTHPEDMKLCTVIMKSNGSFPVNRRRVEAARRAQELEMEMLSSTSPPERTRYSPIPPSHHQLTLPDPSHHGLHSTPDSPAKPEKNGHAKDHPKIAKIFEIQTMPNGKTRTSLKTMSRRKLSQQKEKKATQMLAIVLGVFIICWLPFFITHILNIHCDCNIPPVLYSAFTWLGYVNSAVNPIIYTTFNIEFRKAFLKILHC

D2 Cyclase % Inhibition Normalized [1]: −1.9 ± 13.3% | D3 Cyclase % Inhibition Normalized [2]: 27.7 ± 7.0% | Ki (D3R): 1.32 ± 0.35 nM
SMILES: CC(C)(C)c1nc(N2CCN(CCCCNC(=O)c3cn4ccccc4n3)CC2)cc(C(F)(F)F)n1 [Compound 113, N-(4-(4-(2-(tert-Butyl)-6-(trifluoromethyl)pyrimidin-4-yl)piperazin-1-yl)butyl)imidazo[1,2-a]pyridine-2-carboxamide]
cocaine-induced locomotor activity (Long Evans rats): significantly reduce cocaine-induced locomotor activity in a dose-related fashion | cue-induced reinstatement (active lever presses, 1-h test) (Rats): strongly reduced in a dose-related fashion
